Measured values taken from the RepoRT retention time repository (doi:10.1016/j.scitotenv.2015.08.078).

experiment: RP, Waters ACQUITY UPLC BEH C18, 100 × 2.1 mm, 1.7 µm, 0.3 mL/min, estimated dead time 0.73 min; A: water + 0.1% formic acid, pH 3; B: methanol + 0.1% formic acid, pH 3; gradient (min/%B) 0/10 14/90 16/90 18/10; conditions: stereoisomer not certain

| Structure (SMILES) | LC retention time [min] |
| --- | --- |
| COC=C(C(=O)OC)c1ccccc1Oc1cc(Oc2ccccc2C#N)ncn1 [Azoxystrobin] | 10.6 |
| CCOCCOC(=O)C(C)Oc1ccc(Oc2ncc(C(F)(F)F)cc2Cl)cc1 (configuration not stated) [Haloxyfop-2-ethoxyethyl] | 13.1 |
| CCSCc1ccccc1OC(=O)NC [Ethiofencarb] | 8.89 |
| COC1CC(OC2CC(C3OC(C)(O)C(C)CC3C)OC2C2(C)CCC(C3(C)CCC4(CC(O)C(C)C(C(C)C5OC(O)(CC(=O)O)C(C)C(OC)C5OC)O4)O3)O2)OC(C)C1OC (configuration not stated) [Maduramicine] | 15.7 |
| CCCCC1C(=O)N(c2ccccc2)N(c2ccccc2)C1=O [Phenylbutazone] | 11.6 |
| CC(C)Nc1nc(Cl)nc(NC(C)C)n1 [Propazine] | 9.88 |
| CC(C)c1cc(Oc2ccccc2)cc(C(C)C)c1NC(=S)NC(C)(C)C [Diafenthiuron] | 13.7 |
| COC(=O)c1cc(Oc2ccc(Cl)cc2Cl)ccc1[N+](=O)[O-] [Bifenox] | 12.2 |
| CC(C)N(C(=O)SCC(Cl)=C(Cl)Cl)C(C)C [Tri-allate] | 13.3 |
| CCCOCC(=Nc1ccc(Cl)cc1C(F)(F)F)n1ccnc1 [Triflumizole] | 12.7 |
| CCOC(=O)c1ccccc1S(=O)(=O)NC(=O)Nc1nc(Cl)cc(OC)n1 [Chlorimuron ethyl] | 8.65 |
| O=C(O)c1ccccc1C(=O)Nc1cccc2ccccc12 [Naptalam] | 6.59 |
| O=C1CN(N=Cc2ccc([N+](=O)[O-])o2)C(=O)N1 [Nitrofurantoin] | 2.83 |
| CCNc1nc(NC(C)(C)C)nc(OC)n1 [Terbumeton] | 8.02 |
| Cc1ccc(N=CN(C)C=Nc2ccc(C)cc2C)c(C)c1 [Amitraz] | 13.9 |
| N#CC(CCc1ccc(Cl)cc1)(Cn1cncn1)c1ccccc1 (configuration not stated) [Fenbuconazole] | 11.1 |
| CC12CCC(O)CC1=CCC1C2CCC2(C)C(O)CCC12 (configuration not stated) [Androstenediol (AED)] | 12.9 |
| COC(=O)C1C2CC3c4[nH]c5cc(OC)ccc5c4CCN3CC2CC(OC(=O)c2cc(OC)c(OC)c(OC)c2)C1OC (configuration not stated) [Reserpine] | 8.76 |
| CCC1OC(=O)C(C)C(OC2CC(C)(OC)C(O)C(C)O2)C(C)C(OC2OC(C)CC(N(C)C)C2O)C(C)(OC)CC(C)C(=O)C(C)C(O)C1(C)O (configuration not stated) [Clarithromycin] | 10.5 |
| CCCCC(O)(Cn1cncn1)c1ccc(Cl)cc1Cl (configuration not stated) [Hexaconazole] | 12 |
| O=C(NC(=O)c1ccccc1Cl)Nc1ccc(OC(F)(F)F)cc1 [Triflumuron] | 12 |

| Structure (SMILES) | LC retention time [min] |
| --- | --- |
| CCOCN(C(=O)CCl)c1c(C)cccc1CC [Acetochlor] | 11.1 |
| CN1CCN(c2c(F)cc3c(=O)c(C(=O)O)cn4c3c2OCN4C)CC1 [Marbofloxacin] | 2.84 |
| OC(c1ccc(Cl)cc1)(c1cncnc1)c1ccccc1Cl (configuration not stated) [Fenarimol] | 11.6 |
| CCC(C)C(=O)OC1CC(O)C=C2C=CC(C)C(CCC(O)CC(O)CC(=O)O)C21 (configuration not stated) [Pravastatin] | 7.96 |
| O=C(NC(=O)c1c(F)cccc1F)Nc1ccc(Oc2ccc(C(F)(F)F)cc2Cl)cc1F [Flufenoxuron] | 13.5 |
| COP(=S)(OC)Oc1ccc(S(C)=O)c(C)c1 (configuration not stated) [Fenthion sulfoxide] | 7.8 |
| CCC(C)(C)NCC(O)c1cc(Cl)c(N)c(C(F)(F)F)c1 (configuration not stated) [Mapenterol] | 7.01 |
| NS(=O)(=O)c1cc(C(=O)O)c(NCc2ccco2)cc1Cl [Furosemide] | 6.6 |
| CC1=CC2OC3C(O)CC(C)(C34CO4)C2(CO)C(O)C1=O (configuration not stated) [Deoxynivalenol] | 2.83 |
| CON=C(Cc1cccnc1)c1ccc(Cl)cc1Cl (single isomer, unassigned; isomer 1) [Pyrifenox ISOMER 1] | 10.2 |
| CC(N)Cc1ccc2c(c1)OCO2 (configuration not stated) [MDA] | 3.62 |
| CCNc1nc(NC(C)C)nc(SC)n1 [Ametryn] | 9.9 |
| Cc1cc(C)nc(NS(=O)(=O)c2ccc(N)cc2)n1 [Sulfamethazine] | 3.59 |
| CCC(C)c1ccccc1OC(=O)NC (configuration not stated) [Fenobucarb] | 9.78 |
| CCOP(=S)(OCC)Oc1cnc2ccccc2n1 [Quinalphos] | 11.3 |
| CC1CCCC(O)CCCCCc2cc(O)cc(O)c2C(=O)O1 (configuration not stated) [Zeranol (Alfa Zearalanol. a-ZAL)] | 10.7 |
| CON(C)C(=O)Nc1ccc(Cl)cc1 [Monolinuron] | 8.07 |
| CC(C)=CC1C(C(=O)OCc2coc(Cc3ccccc3)c2)C1(C)C (configuration not stated) [Bioresmethrin] | 14.2 |
| CON=C(C(=O)OC)c1ccccc1COc1ccccc1C [Kresoxim-methyl] | 11.7 |
| COP(=S)(OC)Oc1ccc(Sc2ccc(OP(=S)(OC)OC)cc2)cc1 [Temephos (Abate)] | 13 |
| CCC(=C(CC)c1ccc(O)cc1)c1ccc(O)cc1 [Diethylstilbestrol] | 10.9 |

| Structure (SMILES) | LC retention time [min] |
| --- | --- |
| CC(C)N(C(=O)CCl)c1ccccc1 [Propachlor] | 8.99 |
| CC(C1CC1)C(O)(Cn1cncn1)c1ccc(Cl)cc1 (configuration not stated) [Cyproconazole I] | 10.5 |
| CC(=O)OCC(=O)C1(O)CCC2C3CCC4=CC(=O)C=CC4(C)C3C(O)CC21C (configuration not stated) [Prednisolone 21-acetate] | 9.54 |
| O=C(Nc1ccccc1)N(Cc1ccc(Cl)cc1)C1CCCC1 [Pencycuron] | 12.2 |
| Cn1cc(-c2ccccc2)c(=O)c(-c2cccc(C(F)(F)F)c2)c1 [Fluridone] | 9.63 |
| CCC(C)C1OC2(C=CC1C)CC1CC(CC=C(C)C(OC3CC(OC)C(OC4CC(OC)C(NC(C)=O)C(C)O4)C(C)O3)C(C)C=CC=C3COC4C(O)C(C)=CC(C(=O)O1)C34O)O2 (configuration not stated) [Eprinomectin] | 15.1 |
| O=C(NC(=O)c1c(F)cccc1F)Nc1ccc(CON=C(c2ccc(Cl)cc2)C2CC2)cc1 [Flucycloxuron] | 13.4 |
| O=C(O)c1cn(C2CC2)c2cc(N3CCNCC3)c(F)cc2c1=O [Ciprofloxacin] | 3.93 |
| CC(C)NCC(O)c1cc(Cl)c(N)c(Cl)c1 (configuration not stated) [Clenproperol] | 4.05 |
| CC(C)C1(C)N=C(c2nc3ccccc3cc2C(=O)O)NC1=O (configuration not stated) [Imazaquin] | 5.22 |
| CCCOCCN(C(=O)CCl)c1c(CC)cccc1CC [Pretilachlor] | 12.5 |
| COCCc1ccc(OCC(O)CNC(C)C)cc1 (configuration not stated) [Metoprolol] | 5.31 |
| CCOP(=S)(OCC)SCn1c(=O)oc2cc(Cl)ccc21 [Phosalone] | 12 |
| CCC(C)(C)NCC(O)c1cc(Cl)c(N)c(Cl)c1 (configuration not stated) [Clenpenterol] | 6.19 |
| CCOC(=O)c1cn2nc(OP(=S)(OCC)OCC)cc2nc1C [Pyrazophos] | 11.9 |
| Clc1ccc(CSC(Cn2cncn2)=Nc2ccc(Cl)cc2Cl)cc1 [Imibenconazole] | 13 |
| COC1C(OC(C)=O)CC(=O)OC(C)CC=CC=CC(O)C(C)CC(CC=O)C1OC1OC(C)C(OC2CC(C)(O)C(OC(=O)CC(C)C)C(C)O2)C(N(C)C)C1O (configuration not stated) [Josamycin] | 11.4 |
| COP(=S)(OC)Oc1nc(Cl)c(Cl)cc1Cl [Chlorpyriphos-methyl] | 12.1 |
| CCSCCSP(=O)(OC)OC [Demeton-S-methyl] | 7.56 |
| COc1cc2c(c3oc(=O)c4c(c13)CCOC4=O)C1CCOC1O2 (configuration not stated) [Aflatoxin G2] | 6.71 |
| Cc1ncc([N+](=O)[O-])n1CCO [Metronidazole (MNZ)] | 5.38 |

| Structure (SMILES) | LC retention time [min] |
| --- | --- |
| COP(=O)(OC)C(O)C(Cl)(Cl)Cl (configuration not stated) [Trichlorfon] | 4.7 |
| COC(=O)c1ccccc1CS(=O)(=O)NC(=O)Nc1nc(OC)cc(OC)n1 [Bensulfuron methyl] | 9.29 |
| CCOP(=O)(OCC)OC(=CCl)c1ccc(Cl)cc1Cl [Chlorfenvinphos] | 12 |
| CCC(C)(CC)c1cc(NC(=O)c2c(OC)cccc2OC)on1 [Isoxaben] | 10.4 |
| CN1CCCC1c1cccnc1 (configuration not stated) [Nicotine] | 1.12 |
| COC(=O)C(C)N(C(=O)Cc1ccccc1)c1c(C)cccc1C (configuration not stated) [Benalaxyl] | 11.7 |
| N#Cc1nn(-c2c(Cl)cc(C(F)(F)F)cc2Cl)c(N)c1S(=O)C(F)(F)F (configuration not stated) [Fipronil] | 11.3 |
| CC(=O)Oc1ccc2c3c1OC1C(OC(C)=O)C=CC4C(C2)N(C)CCC341 (configuration not stated) [Heroin] | 5.32 |
| Cc1nnc(NS(=O)(=O)c2ccc(N)cc2)s1 [Sulfamethiazole] | 3.19 |
| CCOP(=S)(OCC)SCSP(=S)(OCC)OCC [Ethion] | 13.4 |
| CC1C(c2ccc(Cl)cc2)SC(=O)N1C(=O)NC1CCCCC1 (configuration not stated) [Hexythiazox] | 14.2 |
| CN(C)C1C(=O)C(C(N)=O)=C(O)C2(O)C(=O)C3=C(O)c4c(O)cccc4C(C)(O)C3CC12 (configuration not stated) [Tetracycline] | 4.37 |
| CCn1cc(C(=O)O)c(=O)c2cc3c(cc21)OCO3 [Oxolinic acid] | 6.58 |
| COc1ccc(NS(=O)(=O)c2ccc(N)cc2)nn1 [Sulfamethoxypyridazine] | 3.65 |
| CCOC(=O)c1cnn(C)c1S(=O)(=O)NC(=O)Nc1nc(OC)cc(OC)n1 [Pyrazosulfuron-ethyl] | 7.91 |
| CCCCC(C)C(OC(=O)CC(CC(=O)O)C(=O)O)C(CC(C)CC(O)CCCCC(O)CC(O)C(C)N)OC(=O)CC(CC(=O)O)C(=O)O (configuration not stated) [Fumonisin B1] | 9.48 |
| COCc1cnc(C2=NC(C)(C(C)C)C(=O)N2)c(C(=O)O)c1 (configuration not stated) [Imazamox] | 3.21 |
| CNC(=O)Oc1cccc(N=CN(C)C)c1 [Formetanate] | 2.06 |
| CCCCCc1cc(O)c2c(c1)OC(C)(C)C1CC(O)C(C)=CC21 (configuration not stated) [OH-THC] | 13.9 |
